“Also recorded” adds a separate entry of the source. Where a name gives a salt, the structure may show the parent alone. Read-outs that look alike come from different tables or passages of the source.

These results are taken from patent US5721359A, “Crystalline ceftiofur free acid” (Pharmacia & Upjohn Company, priority 1995, dated 1998).

Data set [1] in a line: Plasma disposition of oil suspension of ceftiofur crystalline free acid vs aqueous solution of ceftiofur sodium in cattle (Example 6). Type of data set: in vivo, cattle (Holstein calves). Particulars: SC; for t>0.2 (time ceftiofur metabolite concentrations remained above 0.2 μg/mL): 2.2 mg ceftiofur activity/kg. The method, then:
Sixteen Holstein calves were administered ceftiofur crystalline free acid in an oil suspension (100 mg/mL) or ceftiofur sodium (NAXCEL® Sterile Powder) as an aqueous solution (50 mg/mL) subcutaneously (SC) in a crossover study (each calf received each treatment), with a two-week washout period between doses (2.2 mg ceftiofur activity/kg body weight). Blood samples were obtained serially for 120 hours after drug administration for analysis of ceftiofur and metabolites (measured as desfuroylceftiofur acetamide by HPLC). The primary decision variable was the time ceftiofur metabolite concentrations remained above 0.2 μg/mL (t>0.2), with secondary decision variables being "relative area under the concentration-time curve" (AUC) of the treatments and injection site irritancy assessed antemortem by visual and manual inspection of the injection site over time. Both t>0.2 and AUC were calculated using both the predictive pharmacokinetic equation method and the direct graphical method of trapezoids (AUC) and log-linear interpolation (t>0.2).

A short description of data set [2]: Comparison of time above minimum plasma concentration for ceftiofur derivatives. Type of data set: in vivo. An excerpt:
Using the criteria for sustained release as the time which plasma concentrations remain above some minimum concentration (t>0.2), a comparison of various derivatives of ceftiofur can be made. […] This difference is of practical and statistical significance.

Data set [3] in a line: Solubility. The conditions noted are these: for Solubility-pH7: pH 7; for solubility in aqueous solvents, comparison crystalline free acid vs crystalline hydrochloride: in words. Type of data set: physicochemical. An excerpt:
"Solubility" is a direct consequence of a solid's structure and the intermolecular forces holding the solid together and is defined as the mount of drug which exists in solution when equilibrium is achieved between solution and solid state material.

Data set [4] in a line: Dissolution rate (Table II, FIG. 9). Type of data set: physicochemical. The conditions noted are these: shown graphically in FIG. 9. An excerpt:
"Dissolution rate" is the kinetic translation of solubility for a well stirred system under sink conditions.

Data set [5] in a line: In vivo release. Particulars: for In Vivo Release: Table II; for sustained release properties in vivo: in words. An excerpt:
"In-vivo release" is the biological consequence of the dissolution rate of a compound which is characterized by time to maximum concentration and the maximum concentration in the biological fluid of interest.

Data set [6] in a line: Stability in bulk, aqueous and other formulations. Type of data set: physicochemical.
Data set [7] in a line: Hygroscopity. Particulars: for Hygroscopity: Table II. It is filed as physicochemical. From the text: "Hygroscopity" is the ability of a compound to pick up moisture from or yield moisture to the atmosphere with changes in relative humidity.
Data set [8] in a line: In vitro dissolution of ceftiofur oil suspension formulations (Example 7). It is filed as physicochemical. Particulars: 100 mg/ml oil formulation, 500 ml pH 7 aqueous media, 50 RPM paddle, FIG. 6. The method, then:
100 mg samples of crystalline ceftiofur free acid, amorphous ceftiofur free acid (prepared as described in Example 1) and crystalline ceftiofur hydrochloride, which were all prepared as oil formulations as described in Example 4 above, were loaded into teflon dissolution cells and sealed with a constant surface area dialysis membrane. The loaded cells were placed in a standard dissolution apparatus containing 500 ml of pH 7 aqueous dissolution media which was stirred by a 50 RPM rotating paddle.
The results obtained are shown below in FIG. 6 below.

On the set-up of data set [9]: species or system cattle. Particulars: bovine, in vivo, sc, 4.4 mg/kg. The method, then:
Cattle were administered a single subcutaneous dose (4.4 mg/kg body weight) of crystalline ceftiofur free acid and amorphous ceftiofur free acid (both prepared and then formulated as described above in Examples 1, 3 and 4). The concentration of plasma ceftiofur and desfuroylceftiofur related metabolites were determined over time for 120 hours. The primary decision criteria (that most related to efficacy) was considered to be the time that the ceftiofur metabolite concentrations remained above 0.2 mcg/ml (t>0.2). Less important parameters calculated included "area under the concentration-time curve" (AUC) for each treatment and time to maximum concentrations (tmax).
The results are shown graphically in FIG. 7 below by plotting plasma concentration of desfuroylceftiofur acetamide (DCA) versus time using average data for 6 animals/treatment. […] This is especially important in light of the two forms obtaining statistically equivalent peak concentrations (9.1 mcg/ml for the amorphous ceftiofur free acid versus 7.3 mcg/ml for the crystalline ceftiofur free acid).

Data set [10] is described as follows: Processing (micronization). Type of data set: physicochemical. Particulars: Table II, cell wraps: 'Difficult to micronize'.
The nature of data set [11]: Plasma disposition of crystalline ceftiofur hydrochloride and crystalline ceftiofur free acid oil suspensions in cattle (Example 9). Type of data set: in vivo. The conditions noted are these: SC, 2.2 mg/kg, oil suspension, 16 animals/treatment; separate studies. The procedure: In separate but similarly designed studies conducted in the same laboratory, crystalline ceftiofur free acid (CFA) and crystalline ceftiofur hydrochloride (HCl) suspensions were administered subcutaneously to cattle at a dose of 2.2 mg/kg body weight. In each experiment, plasma samples were obtained for up to 120 hours after drug administration for determination of ceftiofur and its metabolites. The results are shown graphically in FIG. 8 below by plotting plasma concentration (on a logarithmic scale) versus time using average data for 16 animals/treatment. The primary decision criteria (that most related to efficacy) was considered to be the time that the ceftiofur metabolite concentrations remained above 0.2 mcg/ml (t>0.2). Less important parameters measures included "area under the concentration-time curve" (AUC) for each treatment and time to peak and peak concentrations.

A short description of data set [12]: Plasma disposition of aqueous suspensions of ceftiofur crystalline free acid in cattle (Example 5). Particulars: aqueous suspension 100 mg/mL, single dose 1.1 mg ceftiofur activity/kg. Type of data set: in vivo, cattle (Holstein calves). The method, then: Sixteen Holstein calves were administered ceftiofur crystalline free acid in an aqueous suspension (100 mg/mL) by the intramuscular (IM) or subcutaneous (SC) route of administration as a single dose of 1.1 mg ceftiofur activity/kg in a crossover study (each calf got each treatment), with a two-week washout between doses. Blood samples were obtained serially for 120 hours for analysis of ceftiofur and metabolites (measured as desfuroylceftiofur acetamide by HPLC). The primary decision variable was the time ceftiofur metabolite concentrations remained above 0.2 μg/mL (t>0.2), with secondary decision variables being "relative area under the concentration-time curve" (AUC) of the treatments and injection site irritancy assessed antemortem by visual and manual inspection of the injection sites over time. Both t>0.2 and AUC were calculated using both the predictive pharmacokinetic equation method and the direct graphical method of trapezoids (AUC) and log linear interpolation (t>0.2).

Setting [13] is: unstable in 6 weeks (cell wraps over two lines).
Setting [14] is: listed as Crystalline Free Acid.

As to `CO/N=C(\C(=O)N[C@@H]1C(=O)N2C(C(=O)O)=C(CSC(=O)c3ccco3)CS[C@H]12)c1csc(N)n1` [ceftiofur sodium], the “t>0.2 (time ceftiofur metabolite concentrations remained above 0.2 μg/mL)” value in data set [1] (aqueous solution 50 mg/mL) is recorded as 45.50 h. For the same compound, the “rank order of time above the selected minimum plasma concentration (t>0.2)” value in data set [2] (aqueous formulations) is reported as “sodium<crystalline hydrochloride<crystalline free acid<zinc”. The “rank order of duration above minimum plasma concentration (t>0.2)” value in [2] (oil formulations) is “sodium<crystallinehydrochloride<zinc<crystalline free acid”.

Take `CON=C(C(=O)NC1C(=O)N2C(C(=O)O)=C(CSC(=O)c3ccco3)CSC12)c1csc(N)n1` (stereo not shown) [amorphous ceftiofur free acid, reference compound]: the Solubility-pH7 entry in [3] (listed as Amorphous Free Acid) was “≈ 100 mg/mL”. Further, the “Dissolution Rate” value in [4] (listed as Amorphous Free Acid) is given as “Fast”. In addition, in data set [5] (listed as Amorphous Free Acid), the “In Vivo Release” value was “Fast”. Also, the “Stability in Aqueous Formulations (>90% initial potency)” value (“Stability … (>90% initial potency)” below) in [6] (setting [13]) is listed as “Unstable”. For the same compound, the Hygroscopity entry in data set [7] (listed as Amorphous Free Acid) was “High”. The “release from the oil formulation into the dissolution media” value in data set [8] is reported as “very fast release”. Besides, in [9], the “AUC (area under the concentration-time curve)” value came out at 70 µg·h/mL, the peak concentrations turned out to be 9.1 µg/mL, the “t>0.2 (time metabolite concentrations remained above 0.2 mcg/ml)” value was determined as 41 h and the “time to peak concentration (tmax)” value was 2 h.

Take zinc: in data set [2] (in vivo), the “rank order of duration above minimum plasma concentration (t>0.2)” value is given as “sodium<crystallinehydrochloride<zinc<crystalline free acid” and the “rank order of time above the selected minimum plasma concentration (t>0.2)” value is listed as “sodium<crystalline hydrochloride<crystalline free acid<zinc”.

Turning to `CO/N=C(\C(=O)N[C@@H]1C(=O)N2C(C(=O)O)=C(CSC(=O)c3ccco3)CS[C@H]12)c1csc(N)n1` [crystalline ceftiofur hydrochloride, reference compound], the “solubility in aqueous solvents, comparison crystalline free acid vs crystalline hydrochloride” value in data set [3] is listed as “much greater solubility than the crystalline free acid”. For the same compound, the solubility in data set [3] (pH 7, pH 7, cell of crystalline hydrochloride salt, read-out: Solubility-pH7) is around 100 mg/mL. Besides, the “Dissolution Rate” value in [4] was “Fast”. Also, in [5], the “In Vivo Release” value is “Fast” and the “sustained release properties in vivo” value is “does not have useful sustained release properties”. Moreover, the “Stability … (>90% initial potency)” value in [6] (setting [13]) was “Unstable”. Besides, the Hygroscopity result in data set [7] is recorded as “Moderate”. In addition, in [10], the “Processing (micronize)” value was “Micronizes easier”. Further, the “release from the oil formulation into the dissolution media” value in data set [8] is on record as “very fast release”. For the same compound, the “t>0.2 (time metabolite concentrations remained above 0.2 mcg/ml)” value in data set [11] turned out to be 38.5 h.

On to `CON=C(C(=O)NC1C(=O)N2C(C(=O)O)=C(CSC(=O)c3ccco3)CSC12)c1csc(N)n1` (stereo not shown) [crystalline ceftiofur free acid], for which the “solubility in aqueous solvents, comparison crystalline free acid vs crystalline hydrochloride” value in data set [3] was “lower solubility in aqueous solvents than its crystalline hydrochloride salt”. The “solubility in non-polar solvents” value in data set [3] (non-polar solvents) is “insoluble in non-polar solvents”. In [3] (setting [14]), the Solubility-pH7 result was “≈ 8 mg/mL”. The solubility in water entry in data set [3] (water) is “sparingly soluble in water”. For the same compound, in [4], the “Dissolution Rate” value is “slow dissolution rate; also recorded: slower”. The “Dissolution Rate” value in data set [4] (setting [14]) is on record as “Slow”. Further, in data set [5] (setting [14]), the “In Vivo Release” value is “Prolonged”. The “sustained release properties in vivo” value in [5] is “has sustained release properties in vivo”. Further, the “Stability … (>90% initial potency)” value in data set [6] (>90% initial potency) is recorded as “Stable for 6 months”. Also, the “stability (in bulk and formulations) relative to crystalline hydrochloride salt and amorphous free acid” value in [6] (in words) is on record as “superior”. In [7] (setting [14]), the Hygroscopity result is “Low”. Besides, in data set [7] (in words), the “hygroscopicity relative to crystalline hydrochloride salt and amorphous free acid” value is recorded as “superior”. In addition, the “Processing (micronize)” value in [10] (setting [14]) is recorded as “Micronizes easier”. Moreover, the “t>0.2 (time ceftiofur metabolite concentrations remained above 0.2 μg/mL)” value in [12] (IM) is 26.98 h. Also, the “t>0.2 (time ceftiofur metabolite concentrations remained above 0.2 μg/mL)” value in data set [12] (SC, P=0.257 vs IM) was 30.43 h. Besides, in [1] (crystalline free acid in oil, 2.2 mg/kg), the “terminal phase half-life (absorption phase, flip-flop model) compared with ceftiofur sodium” value is “longer”. Besides, in data set [1] (oil suspension 100 mg/mL, P<0.0001 vs ceftiofur sodium), the “t>0.2 (time ceftiofur metabolite concentrations remained above 0.2 μg/mL)” value is listed as 121.58 h. Moreover, in data set [1] (oil suspension vs aqueous solution, 2.2 mg/kg, P>0.05), the “bioavailability compared with aqueous solution of ceftiofur sodium” value is “equally bioavailable”. In addition, in [8], the “release from the oil formulation into the dissolution media” value was “significantly reduced release”. For the same compound, in data set [9], the “AUC (area under the concentration-time curve)” value was 183 µg·h/mL, the “AUC compared with amorphous ceftiofur free acid” value was “more than twice”, the peak concentrations came to 7.3 µg/mL and the “t>0.2 (time metabolite concentrations remained above 0.2 mcg/ml)” value amounted to 101 h. Besides, the “time to peak concentration (tmax)” value in data set [9] came to 8 h. In data set [11], the “t>0.2 (time metabolite concentrations remained above 0.2 mcg/ml)” value was 121.6 h. For the same compound, the “rank order of time above the selected minimum plasma concentration (t>0.2)” value in data set [2] (aqueous formulations) is “sodium<crystalline hydrochloride<crystalline free acid<zinc”. Also, the “rank order of duration above minimum plasma concentration (t>0.2)” value in data set [2] (oil formulations) was “the longest”.

By solubility is commonly meant the dissolved amount per volume that the medium holds.
